Where two headings read alike, the source gives them in different places.
Legend:
[1] = Acute lethality and toxicity, oral administration (gastric probe); type: in vivo, Mus musculus; set-up: key to Toxic symptomatology Type: NN = no symptomatology; D = depression; conditions: in vivo, po; for mortality at 24 h / mortality at 168 h: oral; for mortality at 24 h: read-out: % mortality at following times after administration 24 h; for mortality at 168 h: read-out: % mortality at following times after administration 7 days; for LD50 at 168 h: probit method, read-out: LD50 (mg/kg with reliability limits) 7 days after treatment
Description: (§1) Unless otherwise specified, the research was carried out using: a) Mg-UCD capsules as such; b) the powdered contents of Mg-UCD capsules; CDCA (chenodeoxycholic acid) and UDCA (ursodeoxycholic acid) as pure substance which in all cases was partly dissolved and partly suspended under warm conditions (T = 30°C) in 10% gum arabic mucilage (so as to administer 10-40 ml of liquid per kg orally). In certain cases, namely in the experiments involving parenteral administration, the active principle of Mg-UCD, the chenodeoxycholic acid and ursodeoxycholic acid were dissolved in distilled water of slightly alkaline pH (5-10 ml/kg).
(§2) The generally acute lethality, toxicity and tolerability were determined by oral administration of the Mg-UCD (by gastric probe) in the Mus musculus, rat and dog. Animals of both sexes were used, none of which were pregnant. They were fasted for about 12 hours before treatment (but allowing them free access to water). The investigations were carried out using the Mg-UCD in powder form. Comparative investigations were carried out on the rat and Mus musculus using the active principle by endoperitoneal administration, and chenodeoxycholic acid and ursodeoxycholic acid by oral administration (using a gastric probe). Each dose was administered to 20 rats or Mus musculus (10 male and 10 female) and to eight dogs (4 male and 4 female). The animals were observed attentively during the 7 days following administration, and any lethality, toxic symptoms, disturbances, functional variations determinable with the eye, behaviour etc. were noted.
(§3) The LD50 was determined 7 days after administration using the probit method.

rat = assay: as above; type: in vivo; set-up: key to Toxic symptomatology Type: NN = no symptomatology; D = depression; conditions: oral
Description: as §1, §2, §3

Mus musculus = assay: as above; type: in vivo; set-up: key to Toxic symptomatology Type: NN = no symptomatology; D = depression; conditions: oral
Description: as §1, §2, §3

hampsters [2] = assay: Action on the formation of cholesterol calculi in the gall-bladder (cholesterol-enriched diet, 80 days); type: in vivo; conditions: female hampsters; for % animals with calculi / % animals with crystals: cholesterol-enriched diet
Description: (§4) The investigations were carried out on hampsters (of female sex, but excluding those in a state of pregnancy) having an initial weight of 75-90 g. They were treated for 80 days with oral administration (by gastric probe) of MG-UCD (10-20 mg/kg/day), chenodeoxycholic acid (10-20 mg/kg/day) or ursodeoxycholic acid (10-20 mg/kg/day) (Tables 4 and 5). The animals were maintained for 80 consecutive days on a Nossan feed diet for rats, enriched with cholesterol (2 mg/g of food).
(§5) Each experimental group consisted of 10 units. After 80 days, the animals were narcotised with ethyl ether, and the bile was withdrawn, together with the calculi and crystals from the gall-bladder as described by Pearlman and coll. in Gastroenterology 77, 634 (1979).

patients = assay: Controlled study in comparison with the free acids; tolerability in patients; type: in vivo; conditions: patients
hampsters [3] = assay: Bile lipid and bile acid contents of the bile (cholesterol-enriched diet, 80 days); type: in vivo
Description: as §4, §5
The bile acid, phospholipid, cholesterol, cholic acid, chenodeoxycholic acid, ursodeoxycholic acid, DCA (deoxycholic acid) and LCA (lithocholic acid) contents were evaluated in the bile by the methods described by Pearlman and coll. (see above).

[4] = mouse, 2000 mg/kg, M. musculus F, 2000 mg/kg
[5] = mouse, 2000 mg/kg, M. musculus M, 2000 mg/kg
[6] = mouse, 4000 mg/kg, M. musculus F, 4000 mg/kg
[7] = mouse, 4000 mg/kg, M. musculus M, 4000 mg/kg
[8] = mouse, 8000 mg/kg, M. musculus F, 8000 mg/kg
[9] = mouse, 8000 mg/kg, M. musculus M, 8000 mg/kg
[10] = rat, 2000 mg/kg, Rat F, 2000 mg/kg
[11] = rat, 2000 mg/kg, Rat M, 2000 mg/kg
[12] = rat, 4000 mg/kg, Rat F, 4000 mg/kg
[13] = rat, 4000 mg/kg, Rat M, 4000 mg/kg
[14] = rat, 8000 mg/kg, Rat F, 8000 mg/kg
[15] = rat, 8000 mg/kg, Rat M, 8000 mg/kg

With `C[C@H](CCC(=O)O)[C@H]1CC[C@H]2[C@@H]3[C@@H](O)C[C@@H]4C[C@H](O)CC[C@]4(C)[C@H]3CC[C@]12C` [Ursodeoxycholic acid, 17β-(1-methyl-3-carboxypropyl)-ethiocholane-3α,7β-diol] the mortality at 24 h [1, 4] was 0%, the mortality at 168 h [1, 4] was 0% and the mortality at 24 h [1, 5] was 0%. It also gave a mortality at 168 h [1, 5] of 0%, a mortality at 24 h [1, 6] of 20% and a mortality at 168 h [1, 6] of 20%. It also gave a mortality at 24 h [1, 7] of 20%, a mortality at 168 h [1, 7] of 20% and a mortality at 24 h [1, 8] of 60%. The mortality at 168 h [1, 8] was 70%, the mortality at 24 h [1, 9] was 60% and the mortality at 168 h [1, 9] was 80%. The LD50 at 168 h ([1]; mouse, M. musculus F) was 6140 mg/kg, the LD50 at 168 h ([1]; mouse, M. musculus M) was 5630 mg/kg and the mortality at 24 h [1, 10] was 0%. The mortality at 168 h [1, 10] was 0%, the mortality at 24 h [1, 11] was 0% and the mortality at 168 h [1, 11] was 0%. It also gave a mortality at 24 h [1, 12] of 10%, a mortality at 168 h [1, 12] of 10% and a mortality at 24 h [1, 13] of 10%. It also gave a mortality at 168 h [1, 13] of 10%, a mortality at 24 h [1, 14] of 70% and a mortality at 168 h [1, 14] of 60%. For the same compound, the mortality at 24 h [1, 15] was 70%, the mortality at 168 h [1, 15] was 70% and the LD50 at 168 h ([1]; rat, Rat F) was 7330 mg/kg. The LD50 at 168 h ([1]; rat, Rat M) was 6490 mg/kg, the “Toxic symptomatology Latency” value (rat; Rat F, 2000 mg/kg) was 5-10 min and the “Toxic symptomatology Type” value (rat; Rat F, 2000 mg/kg) was “D”. The “Toxic symptomatology Latency” value (rat; Rat F, 4000 mg/kg) was 5-10 min, the “Toxic symptomatology Type” value (rat; Rat F, 4000 mg/kg) was “D” and the “Toxic symptomatology Latency” value (rat; Rat F, 8000 mg/kg) was 5-10 min. For the same compound, the “Toxic symptomatology Type” value (rat; Rat F, 8000 mg/kg) was “D”, the “Toxic symptomatology Latency” value (rat; Rat M, 2000 mg/kg) was 5-10 min and the “Toxic symptomatology Type” value (rat; Rat M, 2000 mg/kg) was “D”. For the same compound, the “Toxic symptomatology Latency” value (rat; Rat M, 4000 mg/kg) was 5-10 min, the “Toxic symptomatology Type” value (rat; Rat M, 4000 mg/kg) was “D” and the “Toxic symptomatology Latency” value (rat; Rat M, 8000 mg/kg) was 5-10 min. The “Toxic symptomatology Type” value (rat; Rat M, 8000 mg/kg) was “D”, the “Toxic symptomatology Latency” value (Mus musculus; M. musculus F, 2000 mg/kg) was 5-10 min and the “Toxic symptomatology Type” value (Mus musculus; M. musculus F, 2000 mg/kg) was “D”. For the same compound, the “Toxic symptomatology Latency” value (Mus musculus; M. musculus F, 4000 mg/kg) was 5-10 min, the “Toxic symptomatology Type” value (Mus musculus; M. musculus F, 4000 mg/kg) was “D” and the “Toxic symptomatology Latency” value (Mus musculus; M. musculus F, 8000 mg/kg) was 5-10 min. For the same compound, the “Toxic symptomatology Type” value (Mus musculus; M. musculus F, 8000 mg/kg) was “D”, the “Toxic symptomatology Latency” value (Mus musculus; M. musculus M, 2000 mg/kg) was 5-10 min and the “Toxic symptomatology Type” value (Mus musculus; M. musculus M, 2000 mg/kg) was “D”. For the same compound, the “Toxic symptomatology Latency” value (Mus musculus; M. musculus M, 4000 mg/kg) was 5-10 min, the “Toxic symptomatology Type” value (Mus musculus; M. musculus M, 4000 mg/kg) was “D” and the “Toxic symptomatology Latency” value (Mus musculus; M. musculus M, 8000 mg/kg) was 5-10 min. For the same compound, the “Toxic symptomatology Type” value (Mus musculus; M. musculus M, 8000 mg/kg) was “D”, the “% animals with calculi” value (hampsters [2]; 10 mg/kg/day oral for 80 days) was 40% and the “% animals with crystals” value (hampsters [2]; 10 mg/kg/day oral for 80 days) was 20%. For the same compound, the “% animals with calculi” value (hampsters [2]; 20 mg/kg/day oral for 80 days) was 0%, the “% animals with crystals” value (hampsters [2]; 20 mg/kg/day oral for 80 days) was 0% and the “Body weight (g ± s.e.) after following days 80” value (hampsters [2]; day 80, oral, 10 mg/kg/day) was 141 ± 7 g. The side effects (patients) was “tends to cause constipation”, the “Bile acids (expressed as molar % ± s.e.) Cheno-deoxycholic acid” value (hampsters [3]; 10 mg/kg/day oral for 80 days) was 12.4 ± 2.6 molar % and the “Bile acids (expressed as molar % ± s.e.) Cholic acid” value (hampsters [3]; 10 mg/kg/day oral for 80 days) was 30.2 ± 4.1 molar %. For the same compound, the “Bile acids (expressed as molar % ± s.e.) DCA” value (hampsters [3]; 10 mg/kg/day oral for 80 days) was 12.9 ± 0.8 molar %, the “Bile acids (expressed as molar % ± s.e.) LCA” value (hampsters [3]; 10 mg/kg/day oral for 80 days) was 2.5 ± 0.1 molar % and the “Bile acids (expressed as molar % ± s.e.) Urso-deoxycholic acid” value (hampsters [3]; 10 mg/kg/day oral for 80 days) was 36.2 ± 1.4 molar %. For the same compound, the “Bile lipids (expressed as molar % ± s.e.) Bile acids” value (hampsters [3]; 10 mg/kg/day oral for 80 days) was 79.7 ± 4.1 molar %, the “Bile lipids (expressed as molar % ± s.e.) Cholesterol” value (hampsters [3]; 10 mg/kg/day oral for 80 days) was 7.4 ± 0.4 molar % and the “Bile lipids (expressed as molar % ± s.e.) Phospho-lipids” value (hampsters [3]; 10 mg/kg/day oral for 80 days) was 15.5 ± 1.0 molar %. The “Bile acids (expressed as molar % ± s.e.) Cheno-deoxycholic acid” value (hampsters [3]; 20 mg/kg/day oral for 80 days) was 4.5 ± 0.9 molar %, the “Bile acids (expressed as molar % ± s.e.) Cholic acid” value (hampsters [3]; 20 mg/kg/day oral for 80 days) was 17.9 ± 2.1 molar % and the “Bile acids (expressed as molar % ± s.e.) DCA” value (hampsters [3]; 20 mg/kg/day oral for 80 days) was 10.5 ± 0.6 molar %. The “Bile acids (expressed as molar % ± s.e.) LCA” value (hampsters [3]; 20 mg/kg/day oral for 80 days) was 3.9 ± 0.2 molar %, the “Bile acids (expressed as molar % ± s.e.) Urso-deoxycholic acid” value (hampsters [3]; 20 mg/kg/day oral for 80 days) was 72.8 ± 4.7 molar % and the “Bile lipids (expressed as molar % ± s.e.) Bile acids” value (hampsters [3]; 20 mg/kg/day oral for 80 days) was 81.3 ± 4.3 molar %. For the same compound, the “Bile lipids (expressed as molar % ± s.e.) Cholesterol” value (hampsters [3]; 20 mg/kg/day oral for 80 days) was 5.7 ± 0.2 molar % and the “Bile lipids (expressed as molar % ± s.e.) Phospho-lipids” value (hampsters [3]; 20 mg/kg/day oral for 80 days) was 15.8 ± 1.0 molar %.

Source: patent EP0092073A1, “Magnesium salt of chenodeoxycholic acid and ursodeoxycholic acid, the process for its preparation, and therapeutic compositions which contain it as active principle” (SCHWARZ ITALIA S.p.A., priority 1982, dated 1983)
